From patent US9006256B2, “Antitumor agent for thyroid cancer” (Eisai R&D Management Co., Ltd., priority 2006, dated 2015)

Key:
[1] = system: NIH3T3 cells transformed with mutant RET; conditions: Cancer Research, 15, 7284-7290, 2002; cited from earlier work
[2] = system: NIH3T3 cells transformed with mutant RET; conditions: Cancer Research, 15, 7284-7290, 2002; cited from earlier work; remark: listed apart in the source
[3] = system: human medullary thyroid carcinoma cell line (TT); conditions: Journal of the National Cancer Institute, 98, 326-334, 2006; cited from earlier work
RET = molecular target: T1, RET (Homo sapiens, UniProt P07949, C634W); experiment: RET phosphorylation in tumor tissue of model for subcutaneous transplantation of TT; assay type: in vivo, nude mouse; conditions: oral, 10, 30 or 100 mg/kg; tumors resected 2, 8, 12 or 24 hours after administration
T1 construct: from tissue; host or cells: Subcutaneous TT tumour resected from nude mice (TT from ATCC, mice from Charles River)
Method: (§1) Human medullary thyroid carcinoma cell line (TT, purchased from ATCC) was cultured at 37° C. in RPMI1640 (containing 15% FBS) in a 5% carbon dioxide incubator to about 80% confluence, and cells were harvested with trypsin-EDTA according to a general method. The cells were suspended in a phosphate buffer to prepare 1×10^8 cells/mL suspension. 0.1 mL each of the resulting cell suspension was subcutaneously transplanted to a nude mouse at the side of its body (purchased from Charles River).
Tumors were resected 2, 8, 12 or 24 hours after administration, to which solubilizing buffer (50 mM Hepes (pH7.4), 150 mM NaCl, 10% (v/v) glycerol, 1% Triton X-100, 1.5 mM MgCl2, 1 mM EDTA (pH 8.0), 100 mM NaF, 1 mM PMSF, 10 μg/mL Aprotinin, 50 μg/mL Leupeptin, 1 μg/mL Pepstatin A, 1 mM Na3VO4), 25 mM β-glycerophosphate, and phosphatase inhibitor cocktail II (SIGMA)) were added and homogenized. Treatment at 15,000 rpm and 4° C. for 15 minutes and addition of SDS buffer to the supernatant were followed by treatment at 94° C. for 5 minutes to solubilize protein to 20 μg/10 μL to prepare cell extract. The cell extract was subjected to electrophoresis and immunoblotting in the same manner as in Example 2.

Erk1/2 = Erk1/2 phosphorylation in human medullary thyroid carcinoma cell line (TT), western blotting; assay type: cell-based; conditions: TT cells, 1 hour treatment
Method: Human medullary thyroid carcinoma cell line (TT, purchased from ATCC) was suspended in RPMI1640 medium containing 15% FBS (purchased from Sigma). TT is a cell expressing RET where cysteine at codon 634 in the wild-type RET amino acid sequence is mutated with tryptophan (Biochemical and Biophysical Research Communications, 207, 1022-1028, 1995). Two mL of this cell suspension per well (4×10^5 cells/mL) was added to 6-well cell culture plate (purchased from FALCON), and cultured in a 5% CO2 incubator (37° C.) overnight. After cultivation, supernatant was removed from each well and 1.8 mL of RPMI1640 medium containing 15% FBS was added. […] Supernatant was removed from each well, which was then washed with 400 μL of PBS, and added with 100 μL of solubilizing buffer (50 mM Hepes (pH7.4), 150 mM NaCl, 10% (v/v) glycerol, 1% Triton X-100, 1.5 mM MgCl2, 1 mM EDTA (pH 8.0), 100 mM NaF, 1 mM PMSF, 10 μg/mL, Aprotinin, 50 μg/mL Leupeptin, 1 μg/mL Pepstatin A and 1 mM Na3VO4). Cells in this solution were harvested with a scraper and treated at 15,000 rpm and 4° C. for 15 minutes. SDS buffer was added to the supernatant and subjected to treatment at 94° C. for 5 minutes to solubilize the protein, which was then prepared to 20 μg/10 μL as a cell extract. […]

[4] = system: human medullary thyroid carcinoma cell line (TT); experiment: Cell growth of human medullary thyroid carcinoma cell line (TT); assay type: cell-based; conditions: 240 h, TT cells, 10 days culture, read-out: inhibitory activity against cell growth (IC50)
Method: Human medullary thyroid carcinoma cell line (TT, purchased from ATCC) was suspended in RPMI1640 medium containing 15% FBS (purchased from Sigma). 0.1 mL per well of this cell suspension (3×10^4 cells/mL) was added to 96-well cell culture plate (purchased from NUNC), and cultured in a 5% CO2 incubator (37° C.) overnight. […] After cultivation, 10 μL of […] (purchased from DOJINDO) was added to each well, treated in 5% CO2 incubator (37° C.) for color development and absorbance of each well was determined with plate reader MTP-500 (Corona Electric) at measurement wavelength of 415 nm and reference wavelength of 660 nm. Percentage (%) of the absorbance of each well with the test substance was determined compared to the absorbance of well without the test substance, based on which concentration of the test substance required for inhibiting cell growth for 50% (IC50) was calculated.

[5] = system: human medullary thyroid carcinoma cell line (TT); experiment: Antitumor effect in model for subcutaneous transplantation of human medullary thyroid carcinoma cell line (TT); assay type: in vivo, nude mouse; conditions: oral, 10, 30 or 100 mg/kg, once a day, four weeks
Method: as §1
The major and minor axes of tumors were measured with Digimatic caliper (Mitsutoyo), and tumor volumes were calculated according to the following formula. Tumor Volume (TV)=Major axis of tumor (mm)×(Minor axis of tumor)^2 (mm^2)/2

T1 sequence (P07949 29-1114 C634W): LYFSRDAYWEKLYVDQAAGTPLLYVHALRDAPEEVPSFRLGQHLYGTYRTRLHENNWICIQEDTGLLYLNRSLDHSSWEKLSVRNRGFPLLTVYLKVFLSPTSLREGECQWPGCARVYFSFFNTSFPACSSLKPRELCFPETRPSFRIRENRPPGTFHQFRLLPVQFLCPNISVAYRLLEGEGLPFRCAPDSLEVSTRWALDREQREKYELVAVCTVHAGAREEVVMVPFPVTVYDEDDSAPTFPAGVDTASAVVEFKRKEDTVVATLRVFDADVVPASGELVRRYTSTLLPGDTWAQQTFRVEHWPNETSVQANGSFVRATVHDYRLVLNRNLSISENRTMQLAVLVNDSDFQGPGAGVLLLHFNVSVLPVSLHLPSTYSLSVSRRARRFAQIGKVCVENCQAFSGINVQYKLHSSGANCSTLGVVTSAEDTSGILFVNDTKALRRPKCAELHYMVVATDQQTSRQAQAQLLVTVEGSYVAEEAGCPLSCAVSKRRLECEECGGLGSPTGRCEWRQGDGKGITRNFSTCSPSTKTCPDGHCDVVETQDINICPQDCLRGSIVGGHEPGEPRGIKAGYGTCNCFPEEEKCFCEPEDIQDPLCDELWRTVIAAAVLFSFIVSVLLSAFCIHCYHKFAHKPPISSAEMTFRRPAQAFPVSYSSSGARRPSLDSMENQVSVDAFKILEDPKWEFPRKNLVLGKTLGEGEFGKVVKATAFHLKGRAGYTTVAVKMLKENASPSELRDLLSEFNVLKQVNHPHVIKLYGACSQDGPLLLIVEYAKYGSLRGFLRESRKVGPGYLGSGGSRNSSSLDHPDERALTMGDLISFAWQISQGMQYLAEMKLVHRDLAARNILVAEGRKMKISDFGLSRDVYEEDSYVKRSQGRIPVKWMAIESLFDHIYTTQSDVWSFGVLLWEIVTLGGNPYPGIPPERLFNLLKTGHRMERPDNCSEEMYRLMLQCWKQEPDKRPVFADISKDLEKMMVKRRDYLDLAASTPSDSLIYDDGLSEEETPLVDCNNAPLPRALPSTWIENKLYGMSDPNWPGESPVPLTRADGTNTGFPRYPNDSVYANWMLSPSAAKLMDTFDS

COc1cc2c(Nc3ccc(Br)cc3F)ncnc2cc1OCC1CCN(C)CC1 [ZD6474]
tumor formation [1]: inhibited tumor formation | scaffold-independent proliferation [2]: suppress scaffold-independent proliferation

CNC(=O)c1cc(Oc2ccc(NC(=O)Nc3ccc(Cl)c(C(F)(F)F)c3)cc2)ccn1 [BAY 43-9006]
size of tumor [3]: reduce the size of tumor

COc1cc2nccc(Oc3ccc(NC(=O)NC4CC4)c(Cl)c3)c2cc1C(N)=O [4-(3-chloro-4-(cyclopropylaminocarbonyl)aminophenoxy)-7-methoxy-6-quinolinecarboxamide]
RET autophosphorylation inhibitory activity in tumor (RET): RET autophosphorylation inhibitory activity at the dose found to exert antitumor effect | inhibition of Erk1/2 phosphorylation (Erk1/2): at a concentration similar to that for RET kinase | IC50 [4]: 0.078 µM | antitumor effect (tumor volume) [5]: dose-dependent antitumor effect
